In the CheMixHub viscosity set:

Assay: xn = mol fraction of the nth substance listed

O=[N+]([O-])c1ccccc1 + CCCCCC
Details	viscosity [mPa·s]
293.17 K, 101.32 kPa, x1 = 0.183	0.408
293.27 K, 101.32 kPa, x1 = 0.453	0.761
293.65 K, 101.32 kPa, x1 = 0.419	0.697
293.66 K, 101.32 kPa, x1 = 0.732	1.09
293.77 K, 101.32 kPa, x1 = 0.287	0.552
293.77 K, 101.32 kPa, x1 = 0.36	0.552
294.1 K, 101.32 kPa, x1 = 0.559	0.799
294.57 K, 101.32 kPa, x1 = 0.183	0.4
294.75 K, 101.32 kPa, x1 = 0.419	0.651
294.75 K, 101.32 kPa, x1 = 0.629	0.881
294.85 K, 101.32 kPa, x1 = 0.453	0.692
295.17 K, 101.32 kPa, x1 = 0.287	0.54
295.17 K, 101.32 kPa, x1 = 0.36	0.54
295.88 K, 101.32 kPa, x1 = 0.732	1.05
296.05 K, 101.32 kPa, x1 = 0.559	0.775
296.3 K, 101.32 kPa, x1 = 0.183	0.395
296.4 K, 101.32 kPa, x1 = 0.453	0.665
296.45 K, 101.32 kPa, x1 = 0.629	0.861
296.57 K, 101.32 kPa, x1 = 0.287	0.529
296.57 K, 101.32 kPa, x1 = 0.36	0.529
296.85 K, 101.32 kPa, x1 = 0.419	0.621
297.45 K, 101.32 kPa, x1 = 0.732	1.03
298.07 K, 101.32 kPa, x1 = 0.559	0.747
298.15 K, 101.32 kPa, x1 = 0.36	0.516
298.25 K, 101.32 kPa, x1 = 0.287	0.516
298.25 K, 101.32 kPa, x1 = 0.629	0.836
298.35 K, 101.32 kPa, x1 = 0.419	0.605
298.55 K, 101.32 kPa, x1 = 0.453	0.645
303.15 K, 101 kPa, x2 = 0.072	1.319
303.15 K, 101 kPa, x2 = 0.148	1.016
303.15 K, 101 kPa, x2 = 0.246	0.8236
303.15 K, 101 kPa, x2 = 0.318	0.6679
303.15 K, 101 kPa, x2 = 0.391	0.5916
303.15 K, 101 kPa, x2 = 0.51	0.4845
303.15 K, 101 kPa, x2 = 0.618	0.4107
303.15 K, 101 kPa, x2 = 0.735	0.3659
303.15 K, 101 kPa, x2 = 0.862	0.3216

c1ccccc1 + CCCCCC
Details	viscosity [mPa·s]
293.15 K, 101.33 kPa, x1 = 0.1713	0.327
293.15 K, 101.33 kPa, x1 = 0.3148	0.345
293.15 K, 101.33 kPa, x1 = 0.4632	0.371
293.15 K, 101.33 kPa, x1 = 0.5799	0.406
293.15 K, 101.33 kPa, x1 = 0.7266	0.454
293.15 K, 101.33 kPa, x1 = 0.8082	0.494
293.15 K, 101.33 kPa, x1 = 0.9173	0.57
298 K, 101.33 kPa, x1 = 0.1026	0.3104
298 K, 101.33 kPa, x1 = 0.2013	0.3191
298 K, 101.33 kPa, x1 = 0.2817	0.3276
298 K, 101.33 kPa, x1 = 0.4385	0.3516
298 K, 101.33 kPa, x1 = 0.5967	0.3871
298 K, 101.33 kPa, x1 = 0.7149	0.4256
298 K, 101.33 kPa, x1 = 0.794	0.46
298 K, 101.33 kPa, x1 = 0.8993	0.5212
298.1 K, 101 kPa, x2 = 0.2	0.469
298.1 K, 101 kPa, x2 = 0.4	0.4
298.1 K, 101 kPa, x2 = 0.5	0.377
298.1 K, 101 kPa, x2 = 0.6	0.359
298.1 K, 101 kPa, x2 = 0.8	0.334
298.15 K, 101 kPa, x2 = 0.07	0.556
298.15 K, 101 kPa, x2 = 0.182	0.5
298.15 K, 101 kPa, x2 = 0.265	0.489
298.15 K, 101 kPa, x2 = 0.405	0.429
298.15 K, 101 kPa, x2 = 0.563	0.4
298.15 K, 101.33 kPa, x1 = 0.0651	0.2983
298.15 K, 101.33 kPa, x1 = 0.1218	0.3034
298.15 K, 101.33 kPa, x1 = 0.1281	0.3134
298.15 K, 101.33 kPa, x1 = 0.2665	0.327
298.15 K, 101.33 kPa, x1 = 0.2763	0.3184
298.15 K, 101.33 kPa, x1 = 0.405	0.3471
298.15 K, 101.33 kPa, x1 = 0.4144	0.339
298.15 K, 101.33 kPa, x1 = 0.5704	0.3822
298.15 K, 101.33 kPa, x1 = 0.5822	0.3759
298.15 K, 101.33 kPa, x1 = 0.7092	0.4165
298.15 K, 101.33 kPa, x1 = 0.7216	0.4254
298.15 K, 101.33 kPa, x1 = 0.821	0.4673
298.15 K, 101.33 kPa, x1 = 0.8811	0.5139
298.15 K, 101.33 kPa, x1 = 0.9055	0.5208
298.15 K, 101.33 kPa, x2 = 0.0488	0.55
298.15 K, 101.33 kPa, x2 = 0.05393	0.5662
298.15 K, 101.33 kPa, x2 = 0.1122	0.5225
298.15 K, 101.33 kPa, x2 = 0.1676	0.466
298.15 K, 101.33 kPa, x2 = 0.2079	0.472
298.15 K, 101.33 kPa, x2 = 0.2486	0.434
298.15 K, 101.33 kPa, x2 = 0.3095	0.4294
298.15 K, 101.33 kPa, x2 = 0.3321	0.397
298.15 K, 101.33 kPa, x2 = 0.3638	0.386
298.15 K, 101.33 kPa, x2 = 0.4168	0.373
298.15 K, 101.33 kPa, x2 = 0.4197	0.3921
298.15 K, 101.33 kPa, x2 = 0.4682	0.358
298.15 K, 101.33 kPa, x2 = 0.5004	0.3712
298.15 K, 101.33 kPa, x2 = 0.5206	0.347
298.15 K, 101.33 kPa, x2 = 0.5934	0.3533
298.15 K, 101.33 kPa, x2 = 0.626	0.328
298.15 K, 101.33 kPa, x2 = 0.6857	0.3394
298.15 K, 101.33 kPa, x2 = 0.7434	0.312
298.15 K, 101.33 kPa, x2 = 0.7913	0.3268
298.15 K, 101.33 kPa, x2 = 0.8753	0.299
298.15 K, 101.33 kPa, x2 = 0.8834	0.3202
298.15 K, 101.33 kPa, x2 = 0.9498	0.294
308.15 K, 101 kPa, x2 = 0.07	0.486
308.15 K, 101 kPa, x2 = 0.182	0.441
308.15 K, 101 kPa, x2 = 0.265	0.415
308.15 K, 101 kPa, x2 = 0.405	0.384
308.15 K, 101 kPa, x2 = 0.563	0.361
323.15 K, 101 kPa, x2 = 0.07	0.407
323.15 K, 101 kPa, x2 = 0.182	0.374
323.15 K, 101 kPa, x2 = 0.265	0.356
323.15 K, 101 kPa, x2 = 0.405	0.334
323.15 K, 101 kPa, x2 = 0.563	0.32
